{
  "source": "patent US20130012613A1",
  "about": "“METHOD FOR SYNTHESIZING CALIXARENE AND/OR CYCLODEXTRIN COPOLYMERS, TERPOLYMERS AND TETRAPOLYMERS, AND USES THEREOF” (Drug Research Technology Transfer LLC, priority 2009, published 2013)",
  "origin": "cited, not measured here",
  "conditions": "native cyclodextrins",
  "data": [
    {"smiles": "OC[C@H]1O[C@@H]2O[C@H]3[C@H](O)[C@@H](O)[C@@H](O[C@H]4[C@H](O)[C@@H](O)[C@@H](O[C@H]5[C@H](O)[C@@H](O)[C@@H](O[C@H]6[C@H](O)[C@@H](O)[C@@H](O[C@H]7[C@H](O)[C@@H](O)[C@@H](O[C@H]1[C@H](O)[C@H]2O)O[C@@H]7CO)O[C@@H]6CO)O[C@@H]5CO)O[C@@H]4CO)O[C@@H]3CO", "note": "[alpha-CD, alpha-cyclodextrin]", "values": [
      {"measurement": "solubility in water", "value": 127, "unit": "mg/mL"}
    ]},
    {"smiles": "OC[C@H]1O[C@@H]2O[C@H]3[C@H](O)[C@@H](O)[C@@H](O[C@H]4[C@H](O)[C@@H](O)[C@@H](O[C@H]5[C@H](O)[C@@H](O)[C@@H](O[C@H]6[C@H](O)[C@@H](O)[C@@H](O[C@H]7[C@H](O)[C@@H](O)[C@@H](O[C@H]8[C@H](O)[C@@H](O)[C@@H](O[C@H]1[C@H](O)[C@H]2O)O[C@@H]8CO)O[C@@H]7CO)O[C@@H]6CO)O[C@@H]5CO)O[C@@H]4CO)O[C@@H]3CO", "note": "[beta-CD, beta-cyclodextrin]", "values": [
      {"measurement": "solubility in water", "value": 18.8, "unit": "mg/mL"}
    ]},
    {"smiles": "OC[C@H]1O[C@@H]2O[C@H]3[C@H](O)[C@@H](O)[C@@H](O[C@H]4[C@H](O)[C@@H](O)[C@@H](O[C@H]5[C@H](O)[C@@H](O)[C@@H](O[C@H]6[C@H](O)[C@@H](O)[C@@H](O[C@H]7[C@H](O)[C@@H](O)[C@@H](O[C@H]8[C@H](O)[C@@H](O)[C@@H](O[C@H]9[C@H](O)[C@@H](O)[C@@H](O[C@H]1[C@H](O)[C@H]2O)O[C@@H]9CO)O[C@@H]8CO)O[C@@H]7CO)O[C@@H]6CO)O[C@@H]5CO)O[C@@H]4CO)O[C@@H]3CO", "note": "[gamma-CD, gamma-cyclodextrin]", "values": [
      {"measurement": "solubility in water", "value": 236, "unit": "mg/mL"}
    ]}
  ]
}
